Data taken from PubChem BioAssay AID192 (DTP/NCI, 2004).
“And” between values parts separate entries of the source, which are not always exact repeats. Identical values can stand only once. Inconclusive results and toxic doses are left out. Rule for the calls: active = survival T/C of 150% or more; inactive = T/C below 125% in these data.

Test system: BDF1 mice, B16 melanoma ip, median survival T/C
Experiment: NCI In Vivo Anticancer Drug Screen. Data for tumor model B16 Melanoma (intraperitoneal) in B6D2F1 (BDF1) mice
Conditions: endpoint: median survival time, higher = longer survival
Procedure, shortened: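 The ratio T/C compares compound-treated mice with vehicle-treated controls, using survival or tumor size as the endpoint in a transplantable tumor model.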

[1] = dose: 100.0 mg/kg/injection, schedule: Q01DX009 (ip), vehicle: saline
[2] = dose: 200.0 mg/kg/injection, schedule: Q01DX009 (ip), vehicle: saline
[3] = dose: 400.0 mg/kg/injection, schedule: Q01DX009 (ip), vehicle: saline
[4] = dose: 12.5 mg/kg/injection, schedule: Q01DX009 (ip), vehicle: saline with Tween-80
[5] = dose: 25.0 mg/kg/injection, schedule: Q01DX009 (ip), vehicle: saline with Tween-80
[6] = dose: 50.0 mg/kg/injection, schedule: Q01DX009 (ip), vehicle: saline with Tween-80
[7] = dose: 100.0 mg/kg/injection, schedule: Q01DX009 (ip), vehicle: saline with Tween-80
[8] = dose: 200.0 mg/kg/injection, schedule: Q01DX009 (ip), vehicle: saline with Tween-80
[9] = dose: 400.0 mg/kg/injection, schedule: Q01DX009 (ip), vehicle: saline with Tween-80
[10] = dose: 25.0 mg/kg/injection, schedule: Q01DX009 (ip), vehicle: Klucel (hydroxypropylcellulose) (HPC)
[11] = dose: 50.0 mg/kg/injection, schedule: Q01DX009 (ip), vehicle: Klucel (hydroxypropylcellulose) (HPC)
[12] = dose: 100.0 mg/kg/injection, schedule: Q01DX009 (ip), vehicle: Klucel (hydroxypropylcellulose) (HPC)
[13] = dose: 200.0 mg/kg/injection, schedule: Q01DX009 (ip), vehicle: Klucel (hydroxypropylcellulose) (HPC)

Measured: T/C

CC(=O)CC(=O)NCc1cccc(C)n1
inactive: [1] 106 % of control | [2] 111 % of control | [3] 112 % of control

CC(C)COC(=O)c1ccc(NC(=O)Nc2ccccc2Cl)cc1
inactive: [4] 100 % of control | [5] 93 % of control | [6] 97 % of control

Cc1cc2c(c3oc(C4(C)OC4C4OC4C)cc(=O)c13)C(=O)c1c(O)c(C3CC(C)(N(C)C)C(O)C(C)O3)cc(C3CC(N(C)C)C(O)C(C)O3)c1C2=O (centres undefined)
inactive: dose: 1.3 micrograms/kg/injection, schedule: Q01DX009 (ip), vehicle: clinical formulation 108 % of control | dose: 1.3 micrograms/kg/injection, schedule: Q01DX009 (ip), vehicle: saline 97 % of control | dose: 2.5 micrograms/kg/injection, schedule: Q01DX009 (ip), vehicle: clinical formulation 117 % of control | dose: 2.5 micrograms/kg/injection, schedule: Q01DX009 (ip), vehicle: saline 108 % of control | dose: 4.0 micrograms/kg/injection, schedule: Q01DX009 (ip), vehicle: Klucel (hydroxypropylcellulose) (HPC) 119 % of control | dose: 5.0 micrograms/kg/injection, schedule: Q01DX009 (ip), vehicle: Klucel (hydroxypropylcellulose) (HPC) 122 % of control | dose: 5.0 micrograms/kg/injection, schedule: Q01DX009 (ip), vehicle: saline 107 % of control and 108 % of control | dose: 8.0 micrograms/kg/injection, schedule: Q01DX009 (ip), vehicle: Klucel (hydroxypropylcellulose) (HPC) 110 % of control | dose: 10.0 micrograms/kg/injection, schedule: Q01DX009 (ip), vehicle: clinical formulation 113 % of control | dose: 10.0 micrograms/kg/injection, schedule: Q01DX009 (ip), vehicle: saline 101 % of control and 123 % of control | dose: 20.0 micrograms/kg/injection, schedule: Q01DX009 (ip), vehicle: saline 124 % of control | dose: 40.0 micrograms/kg/injection, schedule: Q01DX009 (ip), vehicle: saline 114 % of control

O=[N+]([O-])c1ccc2ccccc2c1I
inactive: [7] 101 % of control | [8] 103 % of control | [9] 99 % of control

CC(NC(=O)OC(C)(C)C)C(=O)ON1C(=O)CCC1=O (centres undefined)
inactive: [6] 102 % of control | [7] 92 % of control

COc1ccccc1OCC(O)COC(N)=O (centres undefined)
inactive: [10] 94 % of control | [11] 91 % of control | [12] 105 % of control | [13] 100 % of control | dose: 400.0 mg/kg/injection, schedule: Q01DX009 (ip), vehicle: Klucel (hydroxypropylcellulose) (HPC) 105 % of control

COc1cc(-c2ccc(N=Nc3cc(S(=O)(=O)O)c4ccccc4c3O)c(OC)c2)ccc1N=Nc1cc(S(=O)(=O)O)c2ccccc2c1O
inactive: [1] 102 % of control | [2] 89 % of control | [3] 93 % of control

OCCOCC(F)(F)F
inactive: dose: 6.25 mg/kg/injection, schedule: Q01DX009 (ip), vehicle: saline with Tween-80 94 % of control and 112 % of control | [4] 99 % of control and 104 % of control | [5] 97 % of control and 103 % of control | [6] 92 % of control and 105 % of control | dose: 75.0 mg/kg/injection, schedule: Q01DX009 (ip), vehicle: saline with Tween-80 93 % of control | [7] 102 % of control and 103 % of control | dose: 150.0 mg/kg/injection, schedule: Q01DX009 (ip), vehicle: saline with Tween-80 88 % of control | [8] 94 % of control and 105 % of control

c1ccc(CC2NCCc3c2[nH]c2ccccc32)cc1 (centres undefined)
inactive: dose: 12.5 mg/kg/injection, schedule: Q01DX009 (ip), vehicle: Klucel (hydroxypropylcellulose) (HPC) 105 % of control | [10] 91 % of control and 95 % of control | [11] 86 % of control and 89 % of control | [12] 86 % of control | [13] 105 % of control

CC(=O)CC(C)=O.CC(=O)CC(C)=O.CC(=O)CC(C)=O.[Cr]
inactive: [11] 96 % of control | [12] 97 % of control | [13] 90 % of control

C/C=C(\Cl)C1=CC(=O)C23CC2C2(C)COC1(O)C3(O)O2 (centres undefined)
inactive: dose: 0.75 mg/kg/injection, schedule: Q01DX009 (ip), vehicle: saline with Tween-80 91 % of control

COC(=O)c1cc(C)c(Br)c(N)c1
inactive: dose: 37.5 mg/kg/injection, schedule: Q04DX003 (ip), vehicle: Klucel (hydroxypropylcellulose) (HPC) 97 % of control | dose: 75.0 mg/kg/injection, schedule: Q04DX003 (ip), vehicle: Klucel (hydroxypropylcellulose) (HPC) 92 % of control | dose: 150.0 mg/kg/injection, schedule: Q04DX003 (ip), vehicle: Klucel (hydroxypropylcellulose) (HPC) 94 % of control

C/C=C/C(=O)OCC1CCN(C)C1 (centres undefined)
inactive: dose: 50.0 mg/kg/injection, schedule: Q01DX009 (ip), vehicle: water 98 % of control | dose: 100.0 mg/kg/injection, schedule: Q01DX009 (ip), vehicle: water 107 % of control | dose: 200.0 mg/kg/injection, schedule: Q01DX009 (ip), vehicle: water 90 % of control

Cc1ccc(C2CC3c4ccccc4C2C2CCCCN32)cc1 (centres undefined)
inactive: dose: 0.78 mg/kg/injection, schedule: Q01DX009 (ip), vehicle: water 112 % of control | dose: 1.56 mg/kg/injection, schedule: Q01DX009 (ip), vehicle: water 104 % of control | dose: 3.13 mg/kg/injection, schedule: Q01DX009 (ip), vehicle: water 99 % of control and 115 % of control | dose: 6.25 mg/kg/injection, schedule: Q01DX009 (ip), vehicle: water 107 % of control and 110 % of control | dose: 12.5 mg/kg/injection, schedule: Q01DX009 (ip), vehicle: water 102 % of control | dose: 25.0 mg/kg/injection, schedule: Q01DX009 (ip), vehicle: water 98 % of control

O=C1CC(c2ccc(OCN(CCCl)CCCl)cc2)CC(=O)C1CN(CCCl)CCCl (centres undefined)
inactive: dose: 0.5 mg/kg/injection, schedule: Q01DX009 (ip), vehicle: Klucel (hydroxypropylcellulose) (HPC) 97 % of control | dose: 1.0 mg/kg/injection, schedule: Q01DX009 (ip), vehicle: Klucel (hydroxypropylcellulose) (HPC) 100 % of control | dose: 2.0 mg/kg/injection, schedule: Q01DX009 (ip), vehicle: Klucel (hydroxypropylcellulose) (HPC) 100 % of control | dose: 4.0 mg/kg/injection, schedule: Q01DX009 (ip), vehicle: Klucel (hydroxypropylcellulose) (HPC) 99 % of control | dose: 8.0 mg/kg/injection, schedule: Q01DX009 (ip), vehicle: Klucel (hydroxypropylcellulose) (HPC) 104 % of control

COc1cccc(CN(C)CCC(=O)O)c1
inactive: dose: 100.0 mg/kg/injection, schedule: Q04DX003 (ip), vehicle: Klucel (hydroxypropylcellulose) (HPC) 104 % of control | dose: 200.0 mg/kg/injection, schedule: Q04DX003 (ip), vehicle: Klucel (hydroxypropylcellulose) (HPC) 102 % of control | dose: 400.0 mg/kg/injection, schedule: Q04DX003 (ip), vehicle: Klucel (hydroxypropylcellulose) (HPC) 101 % of control

NC(N)=NC(N)=Nc1ccc(S(=O)(=O)O)cc1
inactive: [7] 94 % of control | [8] 104 % of control | [9] 98 % of control

Nc1ccnc(=O)[nH]1
inactive: dose: 32.0 mg/kg/injection, schedule: Q01DX009 (ip), vehicle: Klucel (hydroxypropylcellulose) (HPC) 98 % of control and 102 % of control | dose: 32.0 mg/kg/injection, schedule: Q01DX009 (ip), vehicle: saline with Tween-80 113 % of control | dose: 32.0 mg/kg/injection, schedule: Q01DX009 (ip), vehicle: saline 104 % of control | dose: 64.0 mg/kg/injection, schedule: Q01DX009 (ip), vehicle: Klucel (hydroxypropylcellulose) (HPC) 101 % of control and 106 % of control | dose: 64.0 mg/kg/injection, schedule: Q01DX009 (ip), vehicle: saline with Tween-80 97 % of control | dose: 64.0 mg/kg/injection, schedule: Q01DX009 (ip), vehicle: saline 110 % of control | dose: 128.0 mg/kg/injection, schedule: Q01DX009 (ip), vehicle: Klucel (hydroxypropylcellulose) (HPC) 103 % of control and 113 % of control | dose: 128.0 mg/kg/injection, schedule: Q01DX009 (ip), vehicle: saline with Tween-80 103 % of control | dose: 128.0 mg/kg/injection, schedule: Q01DX009 (ip), vehicle: saline 119 % of control | dose: 256.0 mg/kg/injection, schedule: Q01DX009 (ip), vehicle: Klucel (hydroxypropylcellulose) (HPC) 94 % of control and 103 % of control | dose: 256.0 mg/kg/injection, schedule: Q01DX009 (ip), vehicle: saline 105 % of control | dose: 512.0 mg/kg/injection, schedule: Q01DX009 (ip), vehicle: Klucel (hydroxypropylcellulose) (HPC) 100 % of control and 102 % of control | dose: 512.0 mg/kg/injection, schedule: Q01DX009 (ip), vehicle: saline with Tween-80 111 % of control | dose: 512.0 mg/kg/injection, schedule: Q01DX009 (ip), vehicle: saline 110 % of control

NCC1OC(OC2C(CO)OC(OC3C(O)C(N)CC(N)C3OC3OC(CO)C(O)C(O)C3N)C2O)C(N)C(O)C1O (centres undefined)
inactive: dose: 50.0 mg/kg/injection, schedule: Q01DX009 (ip), vehicle: saline 114 % of control | [1] 108 % of control | [2] 111 % of control | [3] 112 % of control
